For one test, the target named is Beta-secretase 1 (Homo sapiens, UniProt P56817). Description: Inhibition Assay: Recombinant BACE-1 (extracellular domain, expressed in baculovirus and purified using standard methods) at 0.1 to 1 nM concentrations is incubated with the test compound at various concentrations for 1 hour at room temperature in 100 mM acetate buffer, pH 4.5, containing 0.1% CHAPS. Activity was measured using a final concentration of 3 μM of the fluorescence-quenched substrate Q-C(HSO3)-Ile-Asp-Leu-Ala-Val-Leu-Asp-HN-CH2-CH2-Mca, where Q=2-nitro-5-amino benzoic acid and Mca=7-methoxy-4-coumarinyl acetic acid. Catalytic turnover was monitored in a Spectramax Gemini fluorescence plate reader (Molecular Devices) in black 96-well microplates using excitation/emission wavelength of 325 nm and 400 nm, respectively. Fluorescence increase was followed for 15 min, in 1 minute's intervals. The fluorescence/time slopes were calculated from duplicate wells and from wells without inhibitor and the IC50 values were calculated using a logistic 4-parameter model.

A further test addresses T1, Beta-secretase 2 (Homo sapiens, UniProt Q9Y5Z0).
T1 sequence (Q9Y5Z0 whole entry): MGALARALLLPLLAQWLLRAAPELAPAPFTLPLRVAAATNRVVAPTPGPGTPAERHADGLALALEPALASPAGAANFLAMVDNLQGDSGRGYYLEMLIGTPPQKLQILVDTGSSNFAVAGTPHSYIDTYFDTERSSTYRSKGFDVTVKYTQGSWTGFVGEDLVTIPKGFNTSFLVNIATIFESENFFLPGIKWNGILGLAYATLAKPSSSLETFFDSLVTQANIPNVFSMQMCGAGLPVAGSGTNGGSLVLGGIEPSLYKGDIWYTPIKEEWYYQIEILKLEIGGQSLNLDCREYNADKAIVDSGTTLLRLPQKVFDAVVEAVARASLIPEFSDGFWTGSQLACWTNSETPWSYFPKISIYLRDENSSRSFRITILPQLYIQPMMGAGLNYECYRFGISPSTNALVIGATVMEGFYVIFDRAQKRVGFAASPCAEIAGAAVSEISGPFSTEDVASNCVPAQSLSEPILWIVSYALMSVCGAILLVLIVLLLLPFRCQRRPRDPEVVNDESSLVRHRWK
Description: Fluorescence increase was followed for 15 min, in 1 minute's intervals. The fluorescence/time slopes were calculated from duplicate wells and from wells without inhibitor and the IC50 values were calculated using a logistic 4-parameter model.

Results on 1 compound are retold here after ChEMBL document CHEMBL3886169, “Oxazine derivatives and their use in the treatment of disease” (2015).

Sequence of Beta-secretase 1 (P56817 whole entry, the tested form may be a part): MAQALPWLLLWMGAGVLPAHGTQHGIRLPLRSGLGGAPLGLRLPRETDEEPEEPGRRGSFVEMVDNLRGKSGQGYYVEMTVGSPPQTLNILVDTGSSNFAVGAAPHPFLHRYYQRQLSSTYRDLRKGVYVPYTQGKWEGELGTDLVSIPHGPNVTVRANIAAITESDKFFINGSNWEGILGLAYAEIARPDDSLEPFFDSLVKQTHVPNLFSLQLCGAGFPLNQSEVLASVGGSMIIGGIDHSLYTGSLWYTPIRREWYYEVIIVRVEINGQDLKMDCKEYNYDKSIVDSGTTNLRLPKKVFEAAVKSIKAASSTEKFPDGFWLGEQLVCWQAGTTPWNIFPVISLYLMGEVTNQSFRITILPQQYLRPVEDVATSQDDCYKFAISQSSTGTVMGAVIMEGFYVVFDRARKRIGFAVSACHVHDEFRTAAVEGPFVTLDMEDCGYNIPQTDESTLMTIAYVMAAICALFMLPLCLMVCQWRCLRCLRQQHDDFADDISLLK

A word on the IC50: it is the concentration that inhibits the measured activity by half. Regarding `COc1cnc(C(=O)Nc2ccc(F)c([C@@]3(C)N=C(N)OCC3(F)F)n2)c(C)c1`, the figures for the IC50 at Beta-secretase 1 and at Beta-secretase 2 were 270 nM and 93 nM, respectively.
